{
  "source": "ChEMBL document CHEMBL1201862",
  "about": "“PubChem BioAssay data set” (2004)",
  "assay_in_all_cases": "NCI anticancer screen, dose series, 48 h",
  "key": {"HCC 2998": {"system": "HCC 2998"}, "HOP-92": {"system": "HOP-92"}, "Hs-578T": {"system": "Hs-578T"}, "MOLT-4": {"system": "MOLT-4"}, "Malme-3M": {"system": "Malme-3M"}, "NCI/ADR-RES": {"system": "NCI/ADR-RES"}, "RPMI-8226": {"system": "RPMI-8226"}, "CAKI-1": {"system": "CAKI-1"}, "KM12": {"system": "KM12"}, "NCI-H522": {"system": "NCI-H522"}, "RXF 393": {"system": "RXF 393"}, "SF-539": {"system": "SF-539"}, "SK-MEL-2": {"system": "SK-MEL-2"}, "786-0": {"system": "786-0"}, "A498": {"system": "A498"}, "A549": {"system": "A549"}, "ACHN": {"system": "ACHN"}, "CCRF-CEM": {"system": "CCRF-CEM"}, "COLO 205": {"system": "COLO 205"}, "DU-145": {"system": "DU-145"}, "EKVX": {"system": "EKVX"}, "HCT-116": {"system": "HCT-116"}, "HCT-15": {"system": "HCT-15"}, "HL-60": {"system": "HL-60"}, "HOP-62": {"system": "HOP-62"}, "HT-29": {"system": "HT-29"}, "IGROV-1": {"system": "IGROV-1"}, "K562": {"system": "K562"}, "LOX IMVI": {"system": "LOX IMVI"}, "M14": {"system": "M14"}, "MCF7": {"system": "MCF7"}, "MDA-MB-231": {"system": "MDA-MB-231"}, "MDA-MB-435": {"system": "MDA-MB-435"}, "MDA-N": {"system": "MDA-N"}, "NCI-H226": {"system": "NCI-H226"}, "NCI-H23": {"system": "NCI-H23"}, "NCI-H460": {"system": "NCI-H460"}, "OVCAR-3": {"system": "OVCAR-3"}, "OVCAR-4": {"system": "OVCAR-4"}, "OVCAR-5": {"system": "OVCAR-5"}, "OVCAR-8": {"system": "OVCAR-8"}, "PC-3": {"system": "PC-3"}, "SF-268": {"system": "SF-268"}, "SF-295": {"system": "SF-295"}, "SK-MEL-28": {"system": "SK-MEL-28"}, "SK-MEL-5": {"system": "SK-MEL-5"}, "SK-OV-3": {"system": "SK-OV-3"}, "SN12C": {"system": "SN12C"}, "SNB-19": {"system": "SNB-19"}, "SNB-75": {"system": "SNB-75"}, "SR": {"system": "SR"}, "SW-620": {"system": "SW-620"}, "T47D": {"system": "T47D"}, "U-251": {"system": "U-251"}, "UACC-257": {"system": "UACC-257"}, "UACC-62": {"system": "UACC-62"}, "UO-31": {"system": "UO-31"}},
  "note": "Where “and” joins values, the source holds several entries; their conditions need not be identical. Equal values may be shown once.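 The compound was tested at five concentrations on cells cultured in 96-well plates, with a 48-hour exposure period. GI50 = concentration required for 50% inhibition of growth.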 Calls of active or inactive are those of the source. Cut-off read from the data, not from the text of the source: active = GI50 up to about 1.1 µM and inactive = higher.",
  "data": [
    {"smiles": "CCCOc1c2cc(COC3OC(CO)C(O)C(O)C3O)cc1Cc1cc(COC3OC(CO)C(O)C(O)C3O)cc(c1OCCC)Cc1cc(COC3OC(CO)C(O)C(O)C3O)cc(c1OCCC)Cc1cc(COC3OC(CO)C(O)C(O)C3O)cc(c1OCCC)C2", "note": "(stereo not given)", "values": [
      {"measurement": "GI50", "setting": "HCC 2998", "result": "45.6 µM (inactive) and 57.8 µM (inactive) and 32 µM (inactive)"},
      {"measurement": "GI50", "setting": "HOP-92", "result": "48.9 µM (inactive) and 57.1 µM (inactive)"},
      {"measurement": "GI50", "setting": "Hs-578T", "result": "54 µM (inactive) and 39.1 µM (inactive)"},
      {"measurement": "GI50", "setting": "MOLT-4", "result": "14.4 µM (inactive)"},
      {"measurement": "GI50", "setting": "Malme-3M", "result": "> 100 µM (inactive)"},
      {"measurement": "GI50", "setting": "NCI/ADR-RES", "result": "> 100 µM (inactive) and 92.7 µM (inactive)"},
      {"measurement": "GI50", "setting": "RPMI-8226", "result": "50.7 µM (inactive) and 54.3 µM (inactive)"}
    ]},
    {"smiles": "COc1cc(CC(C)N[C@@H](C)c2ccccc2)cc(OC)c1", "note": "(stereo not given in full)", "values": [
      {"measurement": "GI50", "setting": "CAKI-1", "result": "> 100 µM (inactive)"},
      {"measurement": "GI50", "setting": "Hs-578T", "result": "72.1 µM (inactive)"},
      {"measurement": "GI50", "setting": "KM12", "result": "> 100 µM (inactive)"},
      {"measurement": "GI50", "setting": "NCI-H522", "result": "> 100 µM (inactive)"},
      {"measurement": "GI50", "setting": "RXF 393", "result": "> 100 µM (inactive)"},
      {"measurement": "GI50", "setting": "SF-539", "result": "> 100 µM (inactive)"},
      {"measurement": "GI50", "setting": "SK-MEL-2", "result": "> 100 µM (inactive)"}
    ]},
    {"smiles": "Cc1ccc(NCCCN2CCN(CCCNc3ccc(C)c4sc5ccccc5c(=O)c34)CC2)c2c(=O)c3ccccc3sc12", "values": [
      {"measurement": "GI50", "setting": "786-0", "result": "95.5 µM (inactive)"},
      {"measurement": "GI50", "setting": "A498", "result": "82 µM (inactive)"},
      {"measurement": "GI50", "setting": "A549", "result": "> 100 µM (inactive)"},
      {"measurement": "GI50", "setting": "ACHN", "result": "> 100 µM (inactive)"},
      {"measurement": "GI50", "setting": "CAKI-1", "result": "> 100 µM (inactive)"},
      {"measurement": "GI50", "setting": "CCRF-CEM", "result": "> 100 µM (inactive)"},
      {"measurement": "GI50", "setting": "COLO 205", "result": "> 100 µM (inactive)"},
      {"measurement": "GI50", "setting": "DU-145", "result": "71.6 µM (inactive)"},
      {"measurement": "GI50", "setting": "EKVX", "result": "86.3 µM (inactive)"},
      {"measurement": "GI50", "setting": "HCC 2998", "result": "> 100 µM (inactive)"},
      {"measurement": "GI50", "setting": "HCT-116", "result": "> 100 µM (inactive)"},
      {"measurement": "GI50", "setting": "HCT-15", "result": "> 100", "unit": "µM"},
      {"measurement": "GI50", "setting": "HL-60", "result": "> 100 µM (inactive)"},
      {"measurement": "GI50", "setting": "HOP-62", "result": "> 100 µM (inactive)"},
      {"measurement": "GI50", "setting": "HT-29", "result": "> 100 µM (inactive)"},
      {"measurement": "GI50", "setting": "Hs-578T", "result": "37.2 µM (inactive)"},
      {"measurement": "GI50", "setting": "IGROV-1", "result": "> 100 µM (inactive)"},
      {"measurement": "GI50", "setting": "K562", "result": "> 100 µM (inactive)"},
      {"measurement": "GI50", "setting": "KM12", "result": "> 100 µM (inactive)"},
      {"measurement": "GI50", "setting": "LOX IMVI", "result": "98.4 µM (inactive)"},
      {"measurement": "GI50", "setting": "M14", "result": "> 100 µM (inactive)"},
      {"measurement": "GI50", "setting": "MCF7", "result": "> 100 µM (inactive)"},
      {"measurement": "GI50", "setting": "MDA-MB-231", "result": "> 100 µM (inactive)"},
      {"measurement": "GI50", "setting": "MDA-MB-435", "result": "> 100 µM (inactive)"},
      {"measurement": "GI50", "setting": "MDA-N", "result": "> 100 µM (inactive)"},
      {"measurement": "GI50", "setting": "MOLT-4", "result": "> 100 µM (inactive)"},
      {"measurement": "GI50", "setting": "Malme-3M", "result": "> 100 µM (inactive)"},
      {"measurement": "GI50", "setting": "NCI-H226", "result": "> 100 µM (inactive)"},
      {"measurement": "GI50", "setting": "NCI-H23", "result": "> 100 µM (inactive)"},
      {"measurement": "GI50", "setting": "NCI-H460", "result": "> 100 µM (inactive)"},
      {"measurement": "GI50", "setting": "NCI-H522", "result": "> 100 µM (inactive)"},
      {"measurement": "GI50", "setting": "NCI/ADR-RES", "result": "> 100 µM (inactive)"},
      {"measurement": "GI50", "setting": "OVCAR-3", "result": "> 100 µM (inactive)"},
      {"measurement": "GI50", "setting": "OVCAR-4", "result": "> 100 µM (inactive)"},
      {"measurement": "GI50", "setting": "OVCAR-5", "result": "> 100 µM (inactive)"},
      {"measurement": "GI50", "setting": "OVCAR-8", "result": "> 100 µM (inactive)"},
      {"measurement": "GI50", "setting": "PC-3", "result": "21.4 µM (inactive)"},
      {"measurement": "GI50", "setting": "RPMI-8226", "result": "> 100 µM (inactive)"},
      {"measurement": "GI50", "setting": "RXF 393", "result": "39.4 µM (inactive)"},
      {"measurement": "GI50", "setting": "SF-268", "result": "34.2 µM (inactive)"},
      {"measurement": "GI50", "setting": "SF-295", "result": "55.6 µM (inactive)"},
      {"measurement": "GI50", "setting": "SF-539", "result": "> 100 µM (inactive)"},
      {"measurement": "GI50", "setting": "SK-MEL-28", "result": "30.5 µM (inactive)"},
      {"measurement": "GI50", "setting": "SK-MEL-2", "result": "23.4 µM (inactive)"},
      {"measurement": "GI50", "setting": "SK-MEL-5", "result": "> 100 µM (inactive)"},
      {"measurement": "GI50", "setting": "SK-OV-3", "result": "> 100 µM (inactive)"},
      {"measurement": "GI50", "setting": "SN12C", "result": "> 100 µM (inactive)"},
      {"measurement": "GI50", "setting": "SNB-19", "result": "> 100 µM (inactive)"},
      {"measurement": "GI50", "setting": "SNB-75", "result": "20.6 µM (inactive)"},
      {"measurement": "GI50", "setting": "SR", "result": "> 100 µM (inactive)"},
      {"measurement": "GI50", "setting": "SW-620", "result": "> 100 µM (inactive)"},
      {"measurement": "GI50", "setting": "T47D", "result": "58.7 µM (inactive)"},
      {"measurement": "GI50", "setting": "U-251", "result": "67.6 µM (inactive)"},
      {"measurement": "GI50", "setting": "UACC-257", "result": "> 100 µM (inactive)"},
      {"measurement": "GI50", "setting": "UACC-62", "result": "68.7 µM (inactive)"},
      {"measurement": "GI50", "setting": "UO-31", "result": "> 100 µM (inactive)"}
    ]}
  ]
}
